Assay results taken from the NIST ThermoML archive (doi:10.1016/j.fluid.2014.01.019).

Experiment: xn = mol fraction of the nth substance listed
Conditions: 101 kPa, Liquid; for mass density: Vibrating tube method; for speed of sound: Frequency=2 MHz, Linear variable-path acoustic interferometer

Cc1cccc([N+](=O)[O-])c1 [3-nitrotoluene] + OCc1ccccc1
Conditions	mass density, 298.15 K [kg/m3]	mass density, 303.15 K [kg/m3]	mass density, 308.15 K [kg/m3]	mass density, 313.15 K [kg/m3]	speed of sound, 303.15 K [m/s]	speed of sound, 313.15 K [m/s]
x2 = 0.0537	1146.83	1141.95	1137.26	1132.52	1446	1414
x2 = 0.1225	1139.74	1134.93	1130.25	1125.57	1451	1419
x2 = 0.1914	1132.59	1127.81	1123.19	1118.56	1456	1424
x2 = 0.2356	1127.96	1123.23	1118.65	1114.02	1459	1427
x2 = 0.2992	1121.25	1116.57	1112.02	1107.46	1464	1432
x2 = 0.3717	1113.52	1108.89	1104.4	1099.9	1469	1438
x2 = 0.4567	1104.33	1099.76	1095.34	1090.91	1476	1444
x2 = 0.5413	1095.03	1090.53	1086.18	1081.85	1481	1452
x2 = 0.6035	1088.09	1083.66	1079.37	1075.08	1486	1456
x2 = 0.6539	1082.39	1078.02	1073.77	1069.5	1490	1460
x2 = 0.7023	1076.86	1072.56	1068.36	1064.17	1494	1463
x2 = 0.7437	1072.1	1067.84	1063.65	1059.52	1496	1467
x2 = 0.8121	1064.1	1059.94	1055.82	1051.76	1502	1472
x2 = 0.8556	1058.96	1054.85	1050.78	1046.79	1505	1475
x2 = 0.9354	1049.37	1045.39	1041.41	1037.5	1511	1481

Cc1ccc(Cl)cc1 [4-chlorotoluene] + OCc1ccccc1
Conditions	mass density, 298.15 K [kg/m3]	mass density, 303.15 K [kg/m3]	mass density, 308.15 K [kg/m3]	mass density, 313.15 K [kg/m3]	speed of sound, 303.15 K [m/s]	speed of sound, 313.15 K [m/s]
x2 = 0.0509	1063.78	1058.47	1053.11	1048.16	1292	1248
x2 = 0.1252	1062.11	1056.85	1051.49	1046.61	1327	1265
x2 = 0.1878	1060.69	1055.5	1050.13	1045.28	1350	1281
x2 = 0.2309	1059.7	1054.46	1049.19	1044.4	1370	1288
x2 = 0.3028	1058.05	1052.76	1047.63	1042.92	1394	1307
x2 = 0.3649	1056.62	1051.58	1046.32	1041.65	1415	1325
x2 = 0.4393	1054.9	1049.98	1044.75	1040.17	1439	1343
x2 = 0.5424	1052.48	1047.59	1042.61	1038.12	1468	1369
x2 = 0.6094	1050.91	1046.21	1041.23	1036.83	1480	1387
x2 = 0.6598	1049.71	1045.06	1040.21	1035.88	1493	1399
x2 = 0.7028	1048.68	1044.09	1039.35	1035.06	1502	1410
x2 = 0.7557	1047.41	1042.91	1038.31	1034.1	1506	1423
x2 = 0.8153	1045.97	1041.58	1037.16	1033.02	1511	1437
x2 = 0.8539	1045.04	1040.74	1036.42	1032.32	1513	1448
x2 = 0.9235	1043.33	1039.23	1035.1	1031.15	1514	1465
